# ChEMBL document CHEMBL3352585, “2013 Philip S. Portoghese Medicinal Chemistry Lectureship: drug discovery targeting allosteric sites” (J Med Chem, 2014)
# How the values were obtained:
# [1] = Inhibition of PKA (unknown origin); parameters: species or system Homo sapiens
# Protein kinase C (PKC) = experiment: Inhibition of PKC (unknown origin); parameters: species or system Homo sapiens
# [2] = target: T1, Serine/threonine-protein kinase Sgk1 (Homo sapiens, UniProt O00141); experiment: Inhibition of SGK (unknown origin)
# T1 sequence (O00141 whole entry): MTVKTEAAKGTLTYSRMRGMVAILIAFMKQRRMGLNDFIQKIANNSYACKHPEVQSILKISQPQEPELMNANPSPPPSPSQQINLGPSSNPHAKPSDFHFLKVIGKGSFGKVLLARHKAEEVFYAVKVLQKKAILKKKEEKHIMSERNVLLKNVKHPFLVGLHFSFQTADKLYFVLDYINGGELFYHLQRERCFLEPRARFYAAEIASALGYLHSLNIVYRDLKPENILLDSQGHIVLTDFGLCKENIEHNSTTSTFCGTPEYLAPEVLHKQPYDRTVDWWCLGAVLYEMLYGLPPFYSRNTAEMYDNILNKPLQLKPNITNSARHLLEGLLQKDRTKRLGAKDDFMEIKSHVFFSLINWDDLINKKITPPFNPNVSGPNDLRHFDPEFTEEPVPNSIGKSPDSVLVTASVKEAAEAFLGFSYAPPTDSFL
# [3] = target: T2, Muscarinic acetylcholine receptor M5 (Homo sapiens, UniProt P08912); experiment: Negative allosteric modulator activity at human muscarinic acetylcholine receptor M5 expressed in CHO cells by fluorometric imaging plate reader; type: cell-based
# T2 sequence (P08912 whole entry): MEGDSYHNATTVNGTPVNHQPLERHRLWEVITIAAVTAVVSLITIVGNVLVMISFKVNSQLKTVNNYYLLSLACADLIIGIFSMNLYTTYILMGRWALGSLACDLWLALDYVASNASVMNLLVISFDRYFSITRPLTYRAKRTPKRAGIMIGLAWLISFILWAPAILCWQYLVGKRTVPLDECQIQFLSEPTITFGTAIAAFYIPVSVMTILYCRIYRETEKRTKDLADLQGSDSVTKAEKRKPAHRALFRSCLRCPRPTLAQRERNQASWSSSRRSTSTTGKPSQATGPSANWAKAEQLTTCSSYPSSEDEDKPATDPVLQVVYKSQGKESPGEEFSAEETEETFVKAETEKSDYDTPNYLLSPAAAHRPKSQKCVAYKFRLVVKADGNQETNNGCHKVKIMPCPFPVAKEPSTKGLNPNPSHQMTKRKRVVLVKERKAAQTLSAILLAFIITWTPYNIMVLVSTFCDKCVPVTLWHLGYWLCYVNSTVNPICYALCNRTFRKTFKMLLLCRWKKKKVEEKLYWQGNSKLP
# [4] = target: T2, Muscarinic acetylcholine receptor M5; experiment: Positive allosteric modulator activity at human muscarinic acetylcholine receptor M5 expressed in CHO cells by fluorometric imaging plate reader; type: cell-based
# [5] = target: T2, Muscarinic acetylcholine receptor M5; experiment: Silent allosteric modulator activity at human muscarinic acetylcholine receptor M5 expressed in CHO cells by fluorometric imaging plate reader; type: cell-based
# [6] = target: T2, Muscarinic acetylcholine receptor M5; experiment: Allosteric agonist activity at human muscarinic acetylcholine receptor M5
structure (smiles),measurement,setting,value
CC(C)(N)c1ccc(-c2nc3ccccc3nc2-c2ccccc2)cc1,IC50,[1],> 250 µM
same,IC50,Protein kinase C (PKC),> 250 µM
same,IC50,[2],> 250 µM
COc1cccc(/C=N/N=C/c2cccc(OC)c2)c1,EC50,[3],3 µM
O=C(N[C@H]1C[C@@H](O)C1)c1ccc(C#Cc2cccc(F)c2)cn1,EC50,[4],0.033 µM
Clc1cccc(/C=N/N=C/c2cccc(Cl)c2)c1,EC50,[5],7.6 µM
O=C(N[C@H]1C[C@H](O)C1)c1ccc(C#Cc2cccc(F)c2)cn1,EC50,[6],0.4 µM
Fc1cccc(/C=N/N=C/c2cccc(F)c2)c1,EC50,[4],2.6 µM
